Experimental data: US8293231B2, “Methods and compositions for treating ischemia” (Blue Blood Biotech Corp., priority 2005, dated 2012)
Entries after “also recorded” stand apart in the source; their conditions may differ.

What was measured:
[1] = tested on: ERK1/2, p38 MAPK, Akt, and eNOS phosphorylation in HUVECs; assay: Assay of ERK1/2, p38 MAPK, Akt and eNOS phosphorylation (Western blotting); type: cell-based, human
Procedure: HUVECs were cultured to confluence in a 6-cm-diameter dish and incubated in M199 containing 1% FBS for 18 h. Cells were washed and incubated with serum-free M199 for 6 h, and treated with the indicated concentration of TMD23. Cell lysates were separated by SDS-PAGE, and the levels of phospho-ERK1/2 (Tyr 204) and total ERK1/2, phospho-p38 (Thr-180/Tyr-182) and p38, phosphor-Akt (Ser-473) and Akt, and phospho-eNOS (Ser-1173) and eNOS were detected by Western blotting with specific antibodies (Cell Signaling Technology).

[2] = tested on: Matrigel plugs in FVB mice; assay: Murine angiogenesis assay (Matrigel plug); type: in vivo
Procedure: To assess angiogenic effects in vivo, growth-factor-reduced liquid Matrigel (0.5 mL) containing heparin (60 U/mL) and various concentrations of TMD23, bFGF or VEGF was subcutaneously injected into FVB mice near the abdominal midline. Matrigel with PBS plus heparin served as the negative control, with bFGF and VEGF plus heparin as the positive control. Four days after injection, mice were sacrificed and Matrigel plugs were surgically removed. For macroscopic analysis of angiogenesis, hemoglobin content in Matrigel was measured using Drabkin reagent 525 (Sigma-Aldrich). For histological analysis, rat anti-mouse CD31 (PECAM-1, platelet endothelial cell adhesion molecule-1) antibody (Pharmingen) was used. The same specimens were used for hematoxylin and eosin (H&E) staining.

[3] = tested on: Matrigel plugs in FVB mice; assay: Murine angiogenesis assay (Matrigel plug); type: in vivo; remark: listed apart in the source
HUVECs = assay: In vitro Matrigel angiogenesis assay (tube formation); type: cell-based, human
Procedure: (§1) Growth-factor-reduced Matrigel (BD Biosciences) was thawed at 4° C. A total of 200 μL Matrigel was added to wells of a 48-well plate and polymerized 30 min at 37° C. Two hundred μL cell suspension containing various concentrations of VEGF, TMD23, or TMD23 in the presence of polyclonal rabbit anti-TMD23 antibody (10 μg/mL) or various signaling pathway inhibitors were plated onto Matrigel-coated wells at a density of 2.4×10^4 cells/well in M199 containing 10% FBS for 24 h at 37° C. in a 5% CO2 humidified atmosphere. Each concentration was tested in triplicate in the same plate, with wells photographed using a Leica camera (40× magnification). Tube length was quantified by measuring tubes in five randomly chosen fields from each well using MetaMorph software. Experiments were repeated at least three times.
as §1, with “5° k” for “5%”

[4] = tested on: human umbilical vein endothelial cells (HUVECs); assay: Cell proliferation assay (BrdU incorporation); type: cell-based
Procedure: (§2) To evaluate the effect of TMD proteins on DNA synthesis in human umbilical vein endothelial cells (HUVECs), we performed a 5-bromo-2′-deoxyuridine (BrdU) incorporation assay with a commercial quantification kit (Roche Diagnostic GmbH) and manufacturer's protocol. Mitogenic effects induced by TMD proteins were also determined in the presence of polyclonal rabbit anti-TMD23 antibody (prepared by GlycoNex, Inc., Taiwan) that was purified by protein G-Sepharose column (Amersham Pharmacia Biotech AB).
as §2, with “(HUVECs),” for “(HUVECs), we performed”, “assay were performed” for “assay”

[5] = Thrombomodulin activity assay (cofactor activity for thrombin-dependent protein C activation); type: biochemical
Procedure: (§3) Cofactor activity of TMD2 and TMD23 for thrombin-dependent protein C activation was measured as described previously. Huang H C., et al Thrombomodulin-mediated cell adhesion: Involvement of its lectin-like domain. J Biol. Chem. 2003; 278:46750-46759.
(§4) Cofactor activity of TMD2 and TMD23 for thrombin-dependent protein C activation was measured as described previously. Huang H C., et al Thrombomodulin-mediated cell adhesion: Involvement of its lectin-like domain. J Biol. Chem. 2003; 278: 46750-46759.

[6] = target: thrombin-dependent protein C activation (Homo sapiens, UniProt P00734); assay: as above; type: biochemical; conditions: on an equal molar basis
Procedure: as §3, §4

Q: Which results are given for “TMD23: Recombinant human thrombomodulin fragment, amino acids Ala242-Ser515 of SEQ ID NO: 2: six EGF-like structures (D2) plus Ser/Thr-rich domain D3”?
A: Time of maximal phosphorylation (ERK, p38, and Akt) ([1]; FIG. 3B): about 30 min; Time of maximal phosphorylation (eNOS) ([1]; FIG. 3B): ~120 min; ERK1/2, p38, Akt, and eNOS phosphorylation in HUVECs ([1]; total proteins remained constant, FIG. 3A): dose-dependently induced; Induction of in vivo angiogenesis compared with TMD2 ([2]; Matrigel plug assay): more effective than TMD2; Histology of Matrigel plugs (H&E, anti-mouse CD31) ([2]; TMD23 and heparin): Capillary-like structures were found; Vascularization of Matrigel plugs ([2]; all TMD23 concentrations, plus heparin): Intense vascularization; Appearance of Matrigel plugs, with heparin ([2]; day 4, plus heparin (30 U), TMD23 10, 100, or 1,000 ng, bFGF 250 ng, VEGF 50 ng): bright red; Magnitude of angiogenic reaction with heparin versus without ([2]; gels supplemented with both angiogenic factor and heparin): considerably greater; Hemoglobin content of recovered Matrigel plugs ([2]; plus heparin, compared with controls): significantly increased; Appearance of Matrigel plugs, without heparin [3]: pale; HUVEC tube formation on Matrigel (HUVECs; 24 h, VEGF 10 ng/mL, TMD23 5 to 250 ng/mL): formed elongated capillary-like structures, with complete networks; Tubule length per well (HUVECs; FIG. 5G): stimulated tube formation in dose-dependent manner; Stimulation of HUVEC proliferation ([4]; 4.5 nM (150 ng/mL)): roughly two-fold; DNA synthesis in HUVECs ([4]; BrdU incorporation, FIG. 2A): stimulated DNA synthesis; Mitogenic activity / stimulation of HUVEC proliferation compared with TMD2 ([4]; FIG. 2A): higher mitogenic activity than TMD2; also recorded: more effective than TMD2; Cofactor activity for thrombin-dependent protein C activation [5]: 2,650 pmol of APC formed/min/mg TMD23; Cofactor activity higher than that of TMD2 [6]: 25%
